Where two headings read alike, the source gives them in different places.
Assays:
[1] = tested on: isolated rat liver mitochondria; assay: Mitochondrial oxygen consumption (glutamate/malate or succinate driven, state 4 and state 3); assay type: biochemical; conditions: for Glutamate/malate driven respiration State 3 / Glutamate/malate driven respiration State 4 / Succinate-driven respiration State 3 / Succinate-driven respiration State 4: oxygen consumption, DMSO-treated = 1; for State 3 respiration driven by succinate at 10XCmax: key: 0 indicates that the drug had no effects (negative); for State 3 respiration driven by succinate at 1XCmax: key: 0 indicates that the drug had no effects (negative)
Method in brief: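 Oxygen uptake on glutamate/malate or on succinate defined state 4; ADP added 3 min later gave state 3. Mitochondria isolated from rat liver by differential centrifugation, adjusted to 1 mg/ml and pretreated 5 min with inhibitor (0.1% DMSO final). Values relative to DMSO control, set to 1.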

[2] = tested on: RCC V; assay: RCC V activity in submitochondrial particles; assay type: biochemical, rat; conditions: DMSO treated samples set as 1; for RCC V at 5XCmax: key: 0 indicates that the drug had no effects (negative)
Method in brief: (§1)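 Abs 340 nm (I/V) or 600 nm (II), 1-min reads × 6 min; 550 nm (III, IV), 10-s reads × 2 min. RCC I = rotenone-free minus rotenone rate. DMSO control = 1.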

[3] = tested on: isolated rat liver mitochondria; assay: Mitochondrial swelling (absorbance at 535 nm); assay type: biochemical; conditions: difference in signal between KI and DMSO treated samples at the end of experiments; for Swelling 5XCmax: key: 0 indicates that the drug had no effects (negative)
[4] = tested on: RCC IV; assay: RCC IV activity in submitochondrial particles; assay type: biochemical, rat; set-up: key to RCC IV at 50XCmax / RCC IV at 100XCmax: activity relative to DMSO-treated controls (control set as 1 = 100%); conditions: 50XCmax; DMSO treated samples set as 1; in %
Method in brief: as §1

[5] = tested on: isolated rat liver mitochondria; assay: Mitochondrial ROS production (CM-H2DCFDA); conditions: DMSO treated samples set as 1
[6] = tested on: RCC III; assay: RCC III activity in submitochondrial particles; assay type: biochemical, rat; set-up: key to RCC III at 100XCmax: activity relative to DMSO-treated controls (control set as 1 = 100%); conditions: 100XCmax
Method in brief: as §1

[7] = tested on: RCC I; assay: RCC I activity in submitochondrial particles; assay type: biochemical, rat; set-up: key to RCC I at 10XCmax / RCC I at 100XCmax / RCC I at 50XCmax / RCC I at 30XCmax / RCC I at 20XCmax: activity relative to DMSO-treated controls (control set as 1 = 100%); conditions: 10XCmax; DMSO treated samples set as 1
Method in brief: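 First, submitochondrial particles (1 mg/ml) are incubated with inhibitor for 15 min. Next, complex activities are followed spectrophotometrically, with RCC I taken as the difference between buffers lacking and containing rotenone. Finally, activities are expressed relative to DMSO controls set at 1.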

[8] = tested on: isolated rat liver mitochondria
[9] = molecular target: T1, RCC II (Rattus norvegicus, UniProt P21913+Q641Z9+Q6PCT8+Q920L2); assay: RCC II activity in submitochondrial particles; assay type: biochemical; set-up: key: activity relative to DMSO-treated controls (control set as 1 = 100%); conditions: DMSO treated samples set as 1
T1 construct: Submitochondrial particles were prepared by subjecting the intact mitochondria to three successive freeze–thaw cycles; from tissue; host or cells: rat liver mitochondria, used as submitochondrial particles
T1 sequence (Q920L2 35-656): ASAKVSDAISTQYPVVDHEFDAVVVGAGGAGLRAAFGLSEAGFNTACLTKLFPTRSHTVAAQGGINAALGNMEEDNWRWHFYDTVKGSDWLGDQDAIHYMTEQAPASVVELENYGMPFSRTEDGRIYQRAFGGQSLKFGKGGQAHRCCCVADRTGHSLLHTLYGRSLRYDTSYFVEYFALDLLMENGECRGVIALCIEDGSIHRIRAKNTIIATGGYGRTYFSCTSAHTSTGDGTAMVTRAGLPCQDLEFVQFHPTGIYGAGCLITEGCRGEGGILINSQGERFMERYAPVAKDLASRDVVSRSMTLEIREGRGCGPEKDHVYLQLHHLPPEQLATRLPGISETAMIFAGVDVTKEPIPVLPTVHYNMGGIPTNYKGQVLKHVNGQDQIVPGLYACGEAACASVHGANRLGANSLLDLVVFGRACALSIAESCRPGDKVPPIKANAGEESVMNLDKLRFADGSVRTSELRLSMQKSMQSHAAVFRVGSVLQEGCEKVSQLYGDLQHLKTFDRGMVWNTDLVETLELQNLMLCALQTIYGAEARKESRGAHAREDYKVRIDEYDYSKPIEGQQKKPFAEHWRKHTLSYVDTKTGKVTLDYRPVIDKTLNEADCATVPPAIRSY
T1 sequence (P21913 31-282): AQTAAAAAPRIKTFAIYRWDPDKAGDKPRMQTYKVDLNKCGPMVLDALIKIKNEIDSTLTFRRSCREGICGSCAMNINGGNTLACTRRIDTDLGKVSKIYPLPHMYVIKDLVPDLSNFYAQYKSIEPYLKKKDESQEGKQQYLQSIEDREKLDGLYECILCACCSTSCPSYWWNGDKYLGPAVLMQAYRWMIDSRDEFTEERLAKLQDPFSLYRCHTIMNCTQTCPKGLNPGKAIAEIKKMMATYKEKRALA
T1 sequence (Q641Z9 1-169): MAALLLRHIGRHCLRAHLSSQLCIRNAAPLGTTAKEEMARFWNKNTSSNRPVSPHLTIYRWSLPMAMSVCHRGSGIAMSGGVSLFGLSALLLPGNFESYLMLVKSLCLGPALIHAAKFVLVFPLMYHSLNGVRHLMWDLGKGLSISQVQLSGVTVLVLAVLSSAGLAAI
T1 sequence (Q6PCT8 57-159): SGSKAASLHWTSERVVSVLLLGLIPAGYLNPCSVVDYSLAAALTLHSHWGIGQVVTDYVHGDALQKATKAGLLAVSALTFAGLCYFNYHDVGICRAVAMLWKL
Method in brief: as §1

[10] = tested on: isolated rat liver mitochondria; assay: Mitochondrial inner membrane potential (MMP), Rhodamine 123; assay type: biochemical; conditions: difference in signal between KI and DMSO treated samples at the end of experiments
Excerpt: Fig. 3 KI effects on mitochondrial inner membrane potential (MMP). […] In a, c, data are means and standard derivations from three separate experiments. *p < 0.05 as compared to DMSO-treated samples at the end of experiments. In b, data are means of two independent experiments

[11] = tested on: isolated rat liver mitochondria; assay: Mitochondrial toxicity, any endpoint, intact mitochondria and submitochondrial particles; assay type: biochemical; conditions: for lowest concentration causing significant mitochondrial toxicity: any endpoint
Protocol: Rats were anesthetized by an intraperitoneal injection of Nembutal and the liver perfused with PBS to remove the blood. The liver was then cut into small pieces and homogenized using a Dounce type homogenizer in the ice-cold isolation buffer (IB) containing 200 mM sucrose, 10 mM Tris-MOPS, 1 mM EGTA (pH 7.4). The sample was then centrifuged at 600g for 10 min. The supernatant was further centrifuged at 7500g for 10 min, and the pellets was washed once with the IB and centrifuged again at 7500g for 10 min to collect mitochondria. […] Before drug treatment, the protein concentration was adjusted to 1 mg/ml using appropriate buffer. […] Briefly, mitochondrial and cytosolic fractions from four different preparations using four rats were diluted using the Laemmli protein loading buffer and subject to SDS-PAGE with 4–20% gradient gels. The proteins were blotted to PVDF membranes and detected using antibodies against GAPDH, ATP5A, UQCRC2, SDHB, and NDUFB8.
The aliquoted stock solutions were kept for less than one month and each tube was used only once. The KIs were added to the mitochondria at 1:1000 dilutions. […] The Cmax data were from clinical trials which used FDA recommend dosages, route of administration, and duration. […] The final concentration of DMSO for drug treatment was always 0.1%, and control treatments were 0.1% DMSO.

[12] = cited from earlier work
[13] = ref FDA product labeling, cited from earlier work
[14] = 1XCmax, DMSO treated samples set as 1
[15] = 2.5XCmax, DMSO treated samples set as 1
[16] = 5XCmax, DMSO treated samples set as 1
[17] = 10XCmax, DMSO treated samples set as 1
[18] = 20XCmax, DMSO treated samples set as 1
[19] = 30XCmax, DMSO treated samples set as 1
[20] = 50XCmax, DMSO treated samples set as 1
[21] = 100XCmax, DMSO treated samples set as 1
[22] = human therapeutic Cmax at FDA recommended dosages, ref product labeling and drug approval packages at the official FDA website

## C=CC(=O)N1CCC[C@@H](n2nc(-c3ccc(Oc4ccccc4)cc3)c3c(N)ncnc32)C1 [Ibrutinib]
[1]; [14]
  State 3 respiration driven by succinate at 1XCmax: 0
  State 4 respiration driven by succinate at 1XCmax: 0
[1]; [15]
  State 3 respiration driven by succinate at 2.5XCmax: 0
  State 4 respiration driven by succinate at 2.5XCmax: 0
[1]; [16]
  State 3 respiration driven by succinate at 5XCmax: 0
  State 4 respiration driven by succinate at 5XCmax: 0
[1]; [17]
  State 3 respiration driven by succinate at 10XCmax: 0
  State 4 respiration driven by succinate at 10XCmax: 0
[1]; [18]
  State 3 respiration driven by succinate at 20XCmax: 0
  State 4 respiration driven by succinate at 20XCmax: 0
[1]; [19]
  State 3 respiration driven by succinate at 30XCmax: 0
  State 4 respiration driven by succinate at 30XCmax: 0
[1]; [20]
  State 3 respiration driven by succinate at 50XCmax: 0
  State 4 respiration driven by succinate at 50XCmax: 0
[1]; [21]
  State 3 respiration driven by succinate at 100XCmax: 0
  State 4 respiration driven by succinate at 100XCmax: 0
[2]; 5XCmax
  RCC V at 5XCmax: 0
[2]; 50XCmax
  RCC V at 50XCmax: 0
[3]; 1XCmax
  Swelling 1XCmax: 0
[3]; 2.5XCmax
  Swelling 2.5XCmax: 0
[3]; 5XCmax
  Swelling 5XCmax: 0
[3]; 10XCmax
  Swelling 10XCmax: 0
[3]; 20XCmax
  Swelling 20XCmax: 0
[3]; 30XCmax
  Swelling 30XCmax: 0
[3]; 50XCmax
  Swelling 50XCmax: 0
[3]; 100XCmax
  Swelling 100XCmax: 0
[4]
  RCC IV at 50XCmax: 0
[5]; 1XCmax
  ROS measured by CM-H2DCFDA at 1XCmax: 0
[5]; 2.5XCmax
  ROS measured by CM-H2DCFDA at 2.5XCmax: 0
[5]; 5XCmax
  ROS measured by CM-H2DCFDA at 5XCmax: 0
[5]; 10XCmax
  ROS measured by CM-H2DCFDA at 10XCmax: 0
[5]; 20XCmax
  ROS measured by CM-H2DCFDA at 20XCmax: 0
[5]; 30XCmax
  ROS measured by CM-H2DCFDA at 30XCmax: 0
[5]; 50XCmax
  ROS measured by CM-H2DCFDA at 50XCmax: 0
[5]; 100XCmax
  ROS measured by CM-H2DCFDA at 100XCmax: 0
[6]
  RCC III at 100XCmax: 0
[7]
  RCC I at 10XCmax: 0
[8]; 1XCmax, positive control alamethicin treated samples
  Cytochrome c release 1XCmax: 0
[8]; 2.5XCmax, positive control alamethicin treated samples
  Cytochrome c release 2.5XCmax: 0
[8]; 5XCmax, positive control alamethicin treated samples
  Cytochrome c release 5XCmax: 0
[8]; 10XCmax, positive control alamethicin treated samples
  Cytochrome c release 10XCmax: 0
[8]; 20XCmax, positive control alamethicin treated samples
  Cytochrome c release 20XCmax: 0
[8]; 30XCmax, positive control alamethicin treated samples
  Cytochrome c release 30XCmax: 0
[8]; 50XCmax, positive control alamethicin treated samples
  Cytochrome c release 50XCmax: 0
[8]; 100XCmax, positive control alamethicin treated samples
  Cytochrome c release 100XCmax: 0
[9]; 1.0XCmax
  RCC II at 1.0XCmax: 0
[9]; 2.5XCmax
  RCC II at 2.5XCmax: 0
[9]; 5XCmax
  RCC II at 5XCmax: 0
[9]; 10XCmax
  RCC II at 10XCmax: 0
[9]; 20XCmax
  RCC II at 20XCmax: 0
[9]; 30XCmax
  RCC II at 30XCmax: 0
[9]; 50XCmax
  RCC II at 50XCmax: 0
[9]; 100XCmax
  RCC II at 100XCmax: 0
[10]; 1XCmax
  MMP measured by Rhodamine 123 at 1XCmax: 0
[10]; 2.5XCmax
  MMP measured by Rhodamine 123 at 2.5XCmax: 0
[10]; 5XCmax
  MMP measured by Rhodamine 123 at 5XCmax: 0
[10]; 10XCmax
  MMP measured by Rhodamine 123 at 10XCmax: 0
[10]; 20XCmax
  MMP measured by Rhodamine 123 at 20XCmax: 0
[10]; 30XCmax
  MMP measured by Rhodamine 123 at 30XCmax: 0
[10]; 50XCmax
  MMP measured by Rhodamine 123 at 50XCmax: 0
[10]; 100XCmax
  MMP measured by Rhodamine 123 at 100XCmax: 0
[11]
  lowest concentration causing significant mitochondrial toxicity: 50 fold Cmax

## N#CC[C@H](C1CCCC1)n1cc(-c2ncnc3[nH]ccc23)cn1 [Ruxolitinib]
[1]; 20-fold Cmax
  Glutamate/malate driven respiration State 3: 0.62 ± 0.05
  Glutamate/malate driven respiration State 4: 0.81 ± 0.05
  Succinate-driven respiration State 3: 0.90 ± 0.13
  Succinate-driven respiration State 4: 1.00 ± 0.14
[1]; 30-fold Cmax
  Glutamate/malate driven respiration State 3: 0.54 ± 0.02
  Glutamate/malate driven respiration State 4: 1.00 ± 0.09
  Succinate-driven respiration State 3: 1.05 ± 0.11
  Succinate-driven respiration State 4: 1.08 ± 0.09
[1]; 50-fold Cmax
  Glutamate/malate driven respiration State 3: 0.49 ± 0.06
  Glutamate/malate driven respiration State 4: 0.97 ± 0.20
  Succinate-driven respiration State 3: 0.87 ± 0.08
  Succinate-driven respiration State 4: 1.07 ± 0.07
[1]; 100-fold Cmax
  Glutamate/malate driven respiration State 3: 0.28 ± 0.06
  Glutamate/malate driven respiration State 4: 0.71 ± 0.08
  Succinate-driven respiration State 3: 0.99 ± 0.03
  Succinate-driven respiration State 4: 1.17 ± 0.12
[1]; tested at 1 to 100-fold Cmax
  lowest concentration significantly affecting mitochondrial oxygen consumption: 20 fold Cmax
[12]; [22]
  Cmax: 1200 nM
[13]
  DILI potential (based on labeling): 0
[8]; rat, 30 min, pH 7.4
  lowest concentration causing cytochrome c release: 50 fold Cmax
[11]
  lowest concentration causing significant mitochondrial toxicity: 20 fold Cmax

## CCN(CC)CCNC(=O)c1c(C)[nH]c(/C=C2\C(=O)Nc3ccc(F)cc32)c1C [Sunitinib]
[12]; [22]
  Cmax: 120 nM
[12]; ref Porceddu et al. [2012]
  Cmax: 70800 nM
[13]; W&P warnings and precautions, BBW black box warnings
  labeling for DILI: BBW: fatal DILI
[13]
  DILI potential (based on labeling): 1
[11]; highest concentrations tested
  effects on intact mitochondria or submitochondrial particles: no effects

Reference: paper PMC5515969, “Effects of 31 FDA approved small-molecule kinase inhibitors on isolated rat liver mitochondria” (Archives of Toxicology, 2016)
